Values quoted from earlier work in US20060083727A1, “Methods and compositions for the treatment of diseases characterized by calcification and/or plaque formation” (Nanobac Pharmaceuticals, Inc., priority 2004, published 2006).

Test system: NB/CNP
Details: background statement

Molecule	Effect on protective biofilm secreted by NB/CNP	Killing / sensitivity of NB/CNP
O=C(O)CN(CCN(CC(=O)O)CC(=O)O)CC(=O)O [EDTA, Ethylenediaminetetraacetic acid]	can assist in dissolving the protective biofilm	
Penicillin		cannot be killed
